Legend:
Format in all cases: in vivo
[1] = test system: Echinochloa oryzacola Vasing.; test: Test Example 1: herbicidal activity, application before weed generation in submerged conditions (symbol A); conditions: application herbicide amount 320 g/ha
Procedure, shortened: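 Mixed weed seeds sown in alluvial soil under 4 cm of water, with rice seedlings at the 2.5-leaf stage added. Same-day treatment: emulsion diluted to a set herbicide amount onto the water. Three weeks at 25–30 °C, then graded on a six-step scale.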

[2] = test system: Echinochloa crus-galli var. crus-galli; test: Test Example 3: herbicidal effect by foliage application, Wagner pot (symbol H); conditions: application herbicide amount 320 g/ha
Procedure, shortened: (§1)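 Plants sown in submerged alluvial soil (water depth 0.1–0.5 cm) in a 25–30 °C greenhouse and grown 14 days. An emulsion of the compound diluted in water to a set herbicide amount was sprayed uniformly on foliage. Effect on each plant scored 3 weeks after application.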

[3] = test system: Leptochloa chinensis; test: Test Example 3: herbicidal effect by foliage application, Wagner pot (symbol D); conditions: application herbicide amount 320 g/ha
Procedure, shortened: as §1

[4] = test system: Digitaria ciliaris; test: Test Example 4: herbicidal effect by soil treatment (symbol F)
Procedure, shortened: (§2)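 Seeds were sown in sterilized diluvial soil, covered with about 1.5 cm of soil, and the soil surface was sprayed with a water-diluted emulsion of the compound at a predetermined rate. Plants grew in a greenhouse at 25° C. to 30° C.; effects were scored visually 3 weeks after application.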

[5] = test system: Setaria viridis; test: Test Example 4: herbicidal effect by soil treatment (symbol G)
Procedure, shortened: as §2

[6] = test system: Avena fatua; test: Test Example 4: herbicidal effect by soil treatment (symbol I)
Procedure, shortened: as §2

[7] = test system: Alopecurus myosuroides; test: Test Example 4: herbicidal effect by soil treatment (symbol J)
Procedure, shortened: as §2

[8] = test system: Amaranthus retroflexus; test: Test Example 4: herbicidal effect by soil treatment (symbol N)
Procedure, shortened: as §2

[9] = test system: rapeseed; test: Test Example 4: effect on crop by soil treatment (symbol g); conditions: for g: rapeseed, effect on crop grade: application herbicide amount 320 g/ha
Procedure, shortened: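 Plants are raised in a greenhouse (25° C. to 30° C.) from spot-sown seed, which sits under about 1.5 cm of sterilized diluvial soil in a box shared with weed species.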

[10] = test system: Digitaria ciliaris; test: Test Example 5: herbicidal effect by foliage application, plastic box (symbol F); conditions: 320 g/ha, 3 weeks after application
Procedure, shortened: (§3)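 Emulsion formulation, diluted with water to the intended rate, was applied uniformly to leaves by small sprayer. Recipients were 14-day greenhouse-grown seedlings (25° C. to 30° C.). Assessment followed at 3 weeks.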

[11] = test system: Setaria viridis; test: Test Example 5: herbicidal effect by foliage application, plastic box (symbol G); conditions: 320 g/ha, 3 weeks after application
Procedure, shortened: as §3

[12] = test system: Lolium multiflorum Lam.; test: Test Example 5: herbicidal effect by foliage application, plastic box (symbol K); conditions: 320 g/ha, 3 weeks after application
Procedure, shortened: as §3

[13] = test system: Apera spica-venti; test: Test Example 5: herbicidal effect by foliage application, plastic box (symbol L); conditions: 320 g/ha, 3 weeks after application
Procedure, shortened: as §3

[14] = test system: Abutilon theophrasti; test: Test Example 5: herbicidal effect by foliage application, plastic box (symbol M); conditions: 320 g/ha, 3 weeks after application
Procedure, shortened: as §3

[15] = test system: Chenopodium album; test: Test Example 5: herbicidal effect by foliage application, plastic box (symbol O); conditions: 320 g/ha, 3 weeks after application
Procedure, shortened: as §3

[16] = test system: Stellaria media; test: Test Example 5: herbicidal effect by foliage application, plastic box (symbol P); conditions: 320 g/ha, 3 weeks after application
Procedure, shortened: as §3

[17] = test system: Galium spurium; test: Test Example 5: herbicidal effect by foliage application, plastic box (symbol Q); conditions: 320 g/ha, 3 weeks after application
Procedure, shortened: as §3

[18] = test system: rice plant; test: Test Example 5: effect on crop by foliage application, plastic box (symbol b); conditions: 320 g/ha, 3 weeks after application
Procedure, shortened: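 Crop and weed seeds sown in spots in sterilized diluvial soil in plastic boxes and covered with about 1.5 cm soil. Plants raised in a greenhouse at 25° C. to 30° C. for foliar application.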

[19] = application herbicide amount 320 g/ha

SMILES	Herbicidal effect grade, A: Echinochloa oryzacola Vasing. [1]	herbicidal effect on H (Echinochloa crus-galli var. crus-galli), grade 0-5 [2]	herbicidal effect on D (Leptochloa chinensis), grade 0-5 [3]	F: Digitaria ciliaris, herbicidal effect grade [4, 19]	G: Setaria viridis, herbicidal effect grade [5, 19]	I: Avena fatua, herbicidal effect grade [6, 19]	J: Alopecurus myosuroides, herbicidal effect grade [7, 19]	N: Amaranthus retroflexus, herbicidal effect grade [8, 19]	g: rapeseed, effect on crop grade [9]	F: Digitaria ciliaris, herbicidal effect grade [10]	G: Setaria viridis, herbicidal effect grade [11]	K: Lolium multiflorum Lam., herbicidal effect grade [12]	L: Apera spica-venti, herbicidal effect grade [13]	M: Abutilon theophrasti, herbicidal effect grade [14]	O: Chenopodium album, herbicidal effect grade [15]	P: Stellaria media, herbicidal effect grade [16]	Q: Galium spurium, herbicidal effect grade [17]	b: directly sowed rice plant, effect on crop grade [18]	other results
Cc1cc(C)c(C2=C(O)CC(CC(=O)Cc3ccccc3)C2=O)c(C)c1 (stereo not drawn) [2-015]	0 (Herbicidal ratio of 5% or lower (almost no effect))	1 (Herbicidal ratio of 5% or higher and lower than 20%)	0 (Herbicidal ratio of 5% or lower (almost no effect))	3 (Herbicidal ratio of 40% or higher and lower than 70%)	3 (Herbicidal ratio of 40% or higher and lower than 70%)	0 (Herbicidal ratio of 5% or lower (almost no effect))	2 (Herbicidal ratio of 20% or higher and lower than 40%)	0 (Herbicidal ratio of 5% or lower (almost no effect))	0 (Herbicidal ratio of 5% or lower (almost no effect))	5 (Herbicidal ratio of 90% or more (almost completely withered))	5 (Herbicidal ratio of 90% or more (almost completely withered))	5 (Herbicidal ratio of 90% or more (almost completely withered))	3 (Herbicidal ratio of 40% or higher and lower than 70%)	1 (Herbicidal ratio of 5% or higher and lower than 20%)	0 (Herbicidal ratio of 5% or lower (almost no effect))	0 (Herbicidal ratio of 5% or lower (almost no effect))	0 (Herbicidal ratio of 5% or lower (almost no effect))	5 (Herbicidal ratio of 90% or more (almost completely withered))	
CON=C(C)CC1CC(OC(=O)Cc2ccc(OC)cc2)=C(c2c(C)cc(C)cc2C)C1=O (stereo not drawn) [1-156]	5 (Herbicidal ratio of 90% or more (almost completely withered))	5 (Herbicidal ratio of 90% or more (almost completely withered))	5 (Herbicidal ratio of 90% or more (almost completely withered))							5 (Herbicidal ratio of 90% or more (almost completely withered))	5 (Herbicidal ratio of 90% or more (almost completely withered))	5 (Herbicidal ratio of 90% or more (almost completely withered))	5 (Herbicidal ratio of 90% or more (almost completely withered))	4 (Herbicidal ratio of 70% or higher and lower than 90%)	2 (Herbicidal ratio of 20% or higher and lower than 40%)	3 (Herbicidal ratio of 40% or higher and lower than 70%)	3 (Herbicidal ratio of 40% or higher and lower than 70%)	5 (Herbicidal ratio of 90% or more (almost completely withered))	F: Digitaria ciliaris, herbicidal effect grade ([4]; 320 g/ha): 5 (Herbicidal ratio of 90% or more (almost completely withered)); G: Setaria viridis, herbicidal effect grade ([5]; 320 g/ha): 5 (Herbicidal ratio of 90% or more (almost completely withered)); I: Avena fatua, herbicidal effect grade ([6]; 320 g/ha): 4 (Herbicidal ratio of 70% or higher and lower than 90%); J: Alopecurus myosuroides, herbicidal effect grade ([7]; 320 g/ha): 5 (Herbicidal ratio of 90% or more (almost completely withered)); N: Amaranthus retroflexus, herbicidal effect grade ([8]; 320 g/ha): 5 (Herbicidal ratio of 90% or more (almost completely withered)); g: rapeseed, effect grade on crop ([9]; 320 g/ha): 4 (Herbicidal ratio of 70% or higher and lower than 90%)
CON=C(C)CC1CC(O)=C(c2c(C)cc(Br)cc2C)C1=O (stereo not drawn) [6-003]	5 (Herbicidal ratio of 90% or more (almost completely withered))	5 (Herbicidal ratio of 90% or more (almost completely withered))	5 (Herbicidal ratio of 90% or more (almost completely withered))	5 (Herbicidal ratio of 90% or more (almost completely withered))	5 (Herbicidal ratio of 90% or more (almost completely withered))	3 (Herbicidal ratio of 40% or higher and lower than 70%)	5 (Herbicidal ratio of 90% or more (almost completely withered))	3 (Herbicidal ratio of 40% or higher and lower than 70%)	4 (Herbicidal ratio of 70% or higher and lower than 90%)	5 (Herbicidal ratio of 90% or more (almost completely withered))	5 (Herbicidal ratio of 90% or more (almost completely withered))	5 (Herbicidal ratio of 90% or more (almost completely withered))	5 (Herbicidal ratio of 90% or more (almost completely withered))	3 (Herbicidal ratio of 40% or higher and lower than 70%)	1 (Herbicidal ratio of 5% or higher and lower than 20%)	2 (Herbicidal ratio of 20% or higher and lower than 40%)	3 (Herbicidal ratio of 40% or higher and lower than 70%)	5 (Herbicidal ratio of 90% or more (almost completely withered))	
CON=C(C)CC1CC(O)=C(c2c(C)cc(C#CC3CC3)cc2C)C1=O (mixture of isomers) [6-010]	5 (Herbicidal ratio of 90% or more (almost completely withered))	5 (Herbicidal ratio of 90% or more (almost completely withered))	5 (Herbicidal ratio of 90% or more (almost completely withered))	5 (Herbicidal ratio of 90% or more (almost completely withered))	5 (Herbicidal ratio of 90% or more (almost completely withered))	3 (Herbicidal ratio of 40% or higher and lower than 70%)	5 (Herbicidal ratio of 90% or more (almost completely withered))	1 (Herbicidal ratio of 5% or higher and lower than 20%)	0 (Herbicidal ratio of 5% or lower (almost no effect))	5 (Herbicidal ratio of 90% or more (almost completely withered))	5 (Herbicidal ratio of 90% or more (almost completely withered))	4 (Herbicidal ratio of 70% or higher and lower than 90%)	5 (Herbicidal ratio of 90% or more (almost completely withered))	0 (Herbicidal ratio of 5% or lower (almost no effect))	3 (Herbicidal ratio of 40% or higher and lower than 70%)	0 (Herbicidal ratio of 5% or lower (almost no effect))	0 (Herbicidal ratio of 5% or lower (almost no effect))	5 (Herbicidal ratio of 90% or more (almost completely withered))	

— patent US11000033B2, “Ketone or oxime compound, and herbicide” (NISSAN CHEMICAL CORPORATION, priority 2014, dated 2021)
